Test results from patent US20250304537A1 (Repare Therapeutics Inc., priority 2022, published 2025).
Read-outs that look alike come from different tables or passages of the source.

Assays:
[1] = molecular target: recombinant human Myt1 (full length PKMYT1) (Homo sapiens (Human), UniProt Q99640); assay: Recombinant human Myt1 kinase assay (ADP-Glo); type: biochemical; conditions: 10 μM ATP
Method in brief: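 Full-length insect-cell-expressed human Myt1 (18 nM final) was preincubated with compound (0.5% DMSO) for 15 min at 22 °C. The reaction ran with 10 μM ATP for 60 min at 30 °C in HEPES buffer with Mg2+/Mn2+ and DTT. ADP formed was read by ADP-Glo luminescence, giving IC50 and % max inhibition.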

[2] = tested on: PKMYT1 (CDK1 pThr14) in FUOV1 cells; assay: PKMYT1 cell-based activity assay, CDK1 pThr14 AlphaLISA in FUOV1 cells; conditions: read-out: FUOV-1 CDK1 pThr14 IC50
Method in brief: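 FUOV1 cells were treated with PKMYT1 inhibitor for 2 h at 37 °C, then lysed. CDK1 pThr14 was measured by AlphaLISA, pairing an anti-pThr14 antibody with an anti-total CDK1 antibody (5 nM each). Signal read at 680/615 nm and used to derive IC50.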

Sequence of recombinant human Myt1 (full length PKMYT1) (Q99640 whole entry): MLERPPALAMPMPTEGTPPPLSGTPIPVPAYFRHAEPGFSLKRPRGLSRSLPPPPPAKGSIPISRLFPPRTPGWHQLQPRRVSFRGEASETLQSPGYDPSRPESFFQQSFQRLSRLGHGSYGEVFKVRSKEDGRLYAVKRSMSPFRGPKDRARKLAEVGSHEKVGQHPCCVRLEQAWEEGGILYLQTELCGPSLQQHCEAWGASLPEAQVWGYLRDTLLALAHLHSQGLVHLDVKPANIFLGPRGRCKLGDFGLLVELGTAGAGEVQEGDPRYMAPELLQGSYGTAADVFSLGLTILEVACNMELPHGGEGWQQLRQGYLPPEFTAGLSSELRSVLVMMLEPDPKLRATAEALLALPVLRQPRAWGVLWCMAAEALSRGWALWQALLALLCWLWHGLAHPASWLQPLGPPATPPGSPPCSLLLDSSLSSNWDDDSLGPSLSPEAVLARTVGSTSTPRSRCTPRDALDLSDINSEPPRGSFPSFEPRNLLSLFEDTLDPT

| SMILES | IC50 [1] | IC50 ([2]; 2 h, 2 h compound incubation) | IC50 ([2]; 2 h incubation) | IC50 ([2]; 2 h, 2 h incubation) | IC50 ([2]; 2 h, 2 hours with compound) |
| --- | --- | --- | --- | --- | --- |
| Cc1ccc2[nH]ncc2c1-c1cc(C(N)=O)nc(-c2cccnc2Nc2nc(F)ccc2F)n1 [Compound 499, 2-(2-((3,6-difluoropyridin-2-yl)amino)pyridin-3-yl)-6-(5-methyl-1H-indazol-4-yl)pyrimidine-4-carboxamide] | 4 nM | 209 nM | – | – | – |
| Cc1ccc2[nH]ncc2c1-c1nc(-c2ccccc2NC(=O)c2cccc(F)c2)nc(C(N)=O)c1N [Compound 460] | 10 nM | 825 nM | – | – | – |
| Cc1ccc2[nH]ncc2c1-c1cc(-c2cccc(OCc3ncco3)n2)nc(C(N)=O)c1N [Compound 267] | 4 nM | – | 191 nM | – | – |
| Cc1ccc2[nH]ncc2c1-c1nc(-c2ccccc2NCC2(C)CC2)nc(C(N)=O)c1N [Compound 452] | 16 nM | 124 nM | – | – | – |
| Cc1ccc2[nH]ncc2c1-c1nc(-c2ccccc2Nc2ncccn2)nc(C(N)=O)c1N [Compound 449, 5-amino-6-(5-methyl-1H-indazol-4-yl)-2-(2-(pyrimidin-2-ylamino)phenyl)pyrimidine-4-carboxamide] | 7 nM | 23 nM | – | – | – |
| Cc1ccc2[nH]ncc2c1-c1nc(-c2ccccc2NC(C)C(F)(F)F)nc(C(N)=O)c1N (centres unmarked) [Compound 381, 5-amino-6-(5-methyl-1H-indazol-4-yl)-2-(2-((1,1,1-trifluoropropan-2-yl)amino)phenyl)pyrimidine-4-carboxamide] | 11 nM | – | – | 13 nM | – |
| Cc1ccc2[nH]ncc2c1-c1nc(-c2cccnc2Nc2nccn2C2CC2)nc(C(N)=O)c1N [Compound 902] | 619 nM | – | – | – | > 10000 nM |
| Cc1ccc2[nH]ncc2c1-c1nc(-c2ccc(Cl)cc2NC(=O)C2(C)CC2)nc(C(N)=O)c1N [Compound 438] | 4 nM | 17 nM | – | – | – |
| Cc1ccc(O)c(C)c1-c1cc(-c2cnccn2)cc(C(N)=O)c1N [Compound 84] | 10 nM | – | – | 357 nM | – |
| COC(COc1cccc(-c2cc(-c3c(C)ccc4[nH]ncc34)c(N)c(C(N)=O)n2)n1)C1CC1 (centres unmarked) [Compound 344] | 7 nM | – | – | 983 nM | – |
| Cc1ccc2[nH]ncc2c1-c1nc(-c2cccnc2NCCn2ccnc2C)nc(C(N)=O)c1N [Compound 884] | 13 nM | – | – | – | 1610 nM |
| Cc1ccc2[nH]ncc2c1-c1nc(-c2ccc(F)cc2Nc2ccnc(C#N)c2)nc(C(N)=O)c1N [Compound 620] | 3 nM | 41 nM | – | – | – |
| COCC(=O)Nc1ccccc1-c1nc(C(N)=O)c(N)c(-c2c(C)ccc3[nH]ncc23)n1 [Compound 332, 5-amino-2-(2-(2-methoxyacetamido)phenyl)-6-(5-methyl-1H-indazol-4-yl)pyrimidine-4-carboxamide] | 6 nM | – | – | 56 nM | – |
| CCNc1ccccc1-c1nc(C(N)=O)c(N)c(-c2c(C)ccc3[nH]ncc23)n1 [Compound 442] | 4 nM | 33 nM | – | – | – |
| COC(C)COc1nccc(-c2cc(-c3c(C)ccc4[nH]ncc34)c(N)c(C(N)=O)n2)n1 (centres unmarked) [Compound 303] | 7 nM | – | – | 155 nM | – |
| Cc1ccc2[nH]ncc2c1-c1nc(-c2ccccc2NC(=O)C2(C)CCC2)nc(C(N)=O)c1N [Compound 416] | 7 nM | 22 nM | – | – | – |
| Cc1ccnc(Nc2cc(F)ccc2-c2nc(C(N)=O)c(N)c(-c3c(C)ccc4[nH]ncc34)n2)c1 [Compound 616] | 11 nM | 192 nM | – | – | – |
| Cc1ccc2[nH]ncc2c1-c1cc(-c2ccnc(OCCOC3CC3)n2)nc(C(N)=O)c1N [Compound 205] | 6 nM | – | – | 181 nM | – |
| Cc1ccc2[nH]ncc2c1-c1nc(-c2cc(F)c(F)cc2NC(=O)C2(C)CCN(C)C2)nc(C(N)=O)c1N (centres unmarked) [Compound 484] | 7 nM | 23 nM | – | – | – |
| COC(COc1nccc(-c2cc(-c3c(C)ccc4[nH]ncc34)c(N)c(C(N)=O)n2)n1)C1CC1 (centres unmarked) [Compound 391] | 5 nM | – | – | 56 nM | – |
| Cc1ccc2[nH]ncc2c1-c1nc(-c2cccc3cnsc23)nc(C(N)=O)c1N [Compound 396] | 5 nM | 152 nM | – | – | – |
| Cc1ccc2[nH]ncc2c1-c1nc(-c2ccc3c(c2)OCO3)nc(C(N)=O)c1N [Compound 297] | 9 nM | – | – | 422 nM | – |
| Cc1ccc2[nH]ncc2c1-c1cc(-c2ccc(-c3nccs3)nc2)nc(C(N)=O)c1N [Compound 186] | 47 nM | – | – | 1690 nM | – |
| Cc1ccc2[nH]ncc2c1-c1nc(-c2ccccc2NC(C)C(F)(F)F)cc(C(N)=O)c1N (centres unmarked) [Compound 406] | 5 nM | 53 nM | – | – | – |
| Cc1ccc2[nH]ncc2c1-c1cc(-c2cccc(OCCN3CCCC3)n2)nc(C(N)=O)c1N [Compound 180] | 10 nM | – | – | 99 nM | – |
| NC(=O)c1nc(-c2ccccc2)nc(-c2c(Cl)ccc3[nH]ncc23)c1N [Compound 115, 5-amino-6-(5-chloro-1H-indazol-4-yl)-2-phenylpyrimidine-4-carboxamide] | 15 nM | – | – | 2230 nM | – |

| SMILES | IC50 [1] | IC50 ([2]; 2 h, 2 h compound incubation) | IC50 ([2]; 2 h incubation) | IC50 ([2]; 2 h, 2 h incubation) | IC50 ([2]; 2 h, 2 hours with compound) |
| --- | --- | --- | --- | --- | --- |
| Cc1ccc2[nH]ncc2c1-c1nc(-c2cn(C)nc2NC2CCCC2)nc(C(N)=O)c1N [Compound 900] | 6 nM | – | – | – | 46 nM |
| Cc1ccc2[nH]ncc2c1-c1nc(-c2cc(F)ccc2NCC(F)F)nc(C(N)=O)c1N [Compound 421] | 4 nM | 40 nM | – | – | – |
| Cc1ccc(O)c(C)c1-c1cc(-c2cc(C(F)(F)F)ccn2)nc(C(N)=O)c1N [Compound 67] | 2 nM | – | – | 272 nM | – |
| Cc1ccc2[nH]ncc2c1-c1cc(-c2cccc(OCc3ncco3)n2)nc(C(N)=O)c1N (atropisomer, axis not shown) [Compound 273] | 716 nM | – | 4560 nM | – | – |
| Cc1ccc2[nH]ncc2c1-c1cc(-c2cccc(OCc3ncccn3)n2)nc(C(N)=O)c1N [Compound 184] | 6 nM | – | – | 51 nM | – |
| Cc1ccc2[nH]ncc2c1-c1nc(-c2cccnc2NS(C)(=O)=O)nc(C(N)=O)c1N [Compound 804, 5-amino-6-(5-methyl-1H-indazol-4-yl)-2-(2-(methylsulfonamido)pyridin-3-yl)pyrimidine-4-carboxamide] | 8 nM | – | – | – | 62 nM |
| Cc1ccc2[nH]ncc2c1-c1nc(-c2ccccc2NC(=O)C2CC2)nc(C(N)=O)c1N [Compound 397] | 4 nM | 13 nM | – | – | – |
| Cc1ccc2[nH]ncc2c1-c1nc(-c2ccccc2NS(=O)(=O)C2CC2)nc(C(N)=O)c1N [Compound 426] | 4 nM | 38 nM | – | – | – |
| COc1cccc(-c2cc(-c3c(C)ccc(O)c3C)c(N)c(C(N)=O)n2)n1 [Compound 62] | 8 nM | – | – | 117 nM | – |
| Cc1cccnc1Nc1ncccc1-c1nc(C(N)=O)c(N)c(-c2c(C)ccc3[nH]ncc23)n1 [Compound 622] | 4 nM | 10 nM | – | – | – |
| Cc1ccc2[nH]ncc2c1-c1nc(-c2cccnc2N[C@@H]2CCOCC2(C)C)nc(C(N)=O)c1N [Compound 829] | < 3 nM | – | – | – | 10 nM |
| NC(=O)c1nc(-c2ccccc2)nc(-c2ccc(F)c3[nH]ncc23)c1N [Compound 121] | 49 nM | – | – | > 10000 nM | – |
| Cc1ccc2[nH]ncc2c1-c1nc(-c2cc(F)cnc2N[C@H]2CC[C@@](O)(C(F)(F)F)CC2)nc(C(N)=O)c1N [Compound 834] | 21 nM | – | – | – | 490 nM |
| Cc1ccc2[nH]ncc2c1-c1cc(-c2cncs2)nc(C(N)=O)c1N [Compound 85] | 22 nM | – | – | 1450 nM | – |
| CC[C@H](COc1nccc(-c2cc(-c3c(C)ccc4[nH]ncc34)c(N)c(C(N)=O)n2)n1)OC (atropisomer, axis not shown) [Compound 333] | 3 nM | – | – | 21 nM | – |
| Cc1ccc2[nH]ncc2c1-c1nc(-c2cccnc2N[C@@H]2CCO[C@@H](C)C2)nc(C(N)=O)c1N [Compound 605] | 4 nM | 283 nM | – | – | – |
| Cc1ccc2[nH]ncc2c1-c1cc(-c2ccnc(OCC(F)(F)F)n2)nc(C(N)=O)c1N [Compound 159] | 6 nM | – | 268 nM | – | – |
| COC[C@H](C)Oc1nccc(-c2cc(-c3c(C)ccc4[nH]ncc34)c(N)c(C(N)=O)n2)n1 [Compound 203] | 11 nM | – | – | 332 nM | – |
| Cc1ccc2[nH]ncc2c1-c1nc(-c2cccc(F)c2NC(=O)C2(C)CC2)nc(C(N)=O)c1N [Compound 456] | 6 nM | 158 nM | – | – | – |
| Cc1ccc2[nH]ncc2c1-c1nc(-c2ccccc2NC(=O)C(C)c2ccccc2)nc(C(N)=O)c1N (centres unmarked) [Compound 425] | 139 nM | > 10000 nM | – | – | – |
| Cc1ccc2[nH]ncc2c1-c1cc(-c2ccnc(Oc3ccccc3)n2)nc(C(N)=O)c1N [Compound 173] | 6 nM | – | – | 278 nM | – |
| Cc1ccc(O)c(C)c1-c1cc(-c2ccnnc2)nc(C(N)=O)c1N [Compound 52] | 8 nM | – | – | 45 nM | – |
| Cc1ccc2[nH]ncc2c1-c1nc(-c2ccc(F)cc2Nc2ccnc(C(C)C)c2)nc(C(N)=O)c1N [Compound 619] | 6 nM | 277 nM | – | – | – |
| Cc1ccc2[nH]ncc2c1-c1nc(-c2cc(Cl)ccc2NC(=O)C2(C)CC2)nc(C(N)=O)c1N [Compound 439] | 6 nM | 42 nM | – | – | – |
| Cc1cc(Nc2cc(F)ccc2-c2nc(C(N)=O)c(N)c(-c3c(C)ccc4[nH]ncc34)n2)cc(C)n1 [Compound 624] | 8 nM | 489 nM | – | – | – |
| Cc1ccc2[nH]ncc2c1-c1cc(-c2cccc(O[C@H]3CCOC3)n2)nc(C(N)=O)c1N (atropisomer, axis not shown) [Compound 226] | 4 nM | – | – | 367 nM | – |
